{
  "source": "patent US20240148821A1",
  "about": "“PHARMACEUTICAL USE OF CYCLIC PEPTIDE COMPOUND” (CHUGAI SEIYAKU KABUSHIKI KAISHA, priority 2021, published 2024)",
  "note": "Numbered stars: 1 amine (or outer) side, 2 acyl side, 3 side chain; on linkers, the order of the positions; unused ones are H or OH. Bridge positions count the residues as written; N and C are the ends. Square brackets hold non-standard residues; d marks the D form. Peptide text beside a SMILES is read from it. * marks the point of attachment. hPhe(3-Cl-4-CF3) = N[C@@H](CCc1ccc(C(F)(F)F)c(Cl)c1)C(=O)O; X52 = CN([C@@H](Cc1ccccc1OC(F)(F)F)C(=O)[*:2])[*:1]; hPhe(4-CF3) = N[C@@H](CCc1ccc(C(F)(F)F)cc1)C(=O)O; NMePhe(4-Cl) = CN[C@@H](Cc1ccc(Cl)cc1)C(=O)O; NMePhe(4-Me) = CN[C@@H](Cc1ccc(C)cc1)C(=O)O; NMePhe(2-F) = CN[C@@H](Cc1ccccc1F)C(=O)O; NMeGly(cPent) = CN[C@H](C(=O)O)C1CCCC1; Phe(3-I) = N[C@@H](Cc1cccc(I)c1)C(=O)O; NMehPhe = CN[C@@H](CCc1ccccc1)C(=O)O; NMeCha = CN[C@@H](CC1CCCCC1)C(=O)O; NMeChg = CN[C@H](C(=O)O)C1CCCCC1; NMeI = CC[C@H](C)[C@H](NC)C(=O)O; NMeD = CN[C@@H](CC(=O)O)C(=O)O; CH2CONHtBu = CC(C)(C)NC(=O)C*; NMeL = CN[C@@H](CC(C)C)C(=O)O; NMePra = C#CC[C@H](NC)C(=O)O; NMeNva = CCC[C@H](NC)C(=O)O; NMeV = CN[C@H](C(=O)O)C(C)C; d(β3hA) = C[C@@H](N)CC(=O)O; NMeS = CN[C@@H](CO)C(=O)O; Morpholide = C1CN(*)CCO1; NMeA = CN[C@@H](C)C(=O)O; Nle = CCCC[C@H](N)C(=O)O; Piperidide = C1CCN(*)CC1; Pyrrolidide = C1CCN(*)C1; Ac5c = NC1(C(=O)O)CCCC1; Aze = O=C(O)[C@@H]1CCN1; Aib = CC(C)(N)C(=O)O; Isopentyl = CC(C)CC*; Sar = CNCC(=O)O",
  "data": [
    {"test_system": "Human pancreatic cancer cell line AsPC-1 (G12D mutation Kras)", "experiment": "AsPC-1 cell growth inhibition (AsPC-1 CGI)", "assay_type": "cell-based", "settings": "read-out: AsPC-1 cell growth inhibition, 50% growth inhibitory concentration (IC50 value); 96 hours, CellTiter-Glo, values classified in ranges", "units": {"IC50": "nM"}, "experimental": "Test compounds were serially dilated with dimethyl sulfoxide, and 200 nL was then dispensed to a U-bottom 96-well plate using Labcyte Echo. […] The cell suspension was dispensed to a. plate containing a test compound at 100 μL per well and incubated at 37° C. in a 5% carbon dioxide gas incubator. 96 hours later, 80 μL of CellTiter-Glo (Promega) was added to each well and fluorescence was measured.", "values": [
      {"smiles": "CC[C@H](C)[C@@H]1NC(=O)[C@H](CC(C)C)N(C)C(=O)C[C@@H](C(=O)N(C)C)N(C)C(=O)[C@H]([C@@H](C)CC)N(C)C(=O)C2(CCCC2)NC(=O)[C@@H]2CCCN2C(=O)[C@H](CCc2ccc(C(F)(F)F)c(Cl)c2)NC(=O)CN(C)C(=O)[C@H](Cc2ccc(C)cc2)N(C)C(=O)CN(C)C(=O)CN(C)C1=O", "note": "[Compound 1836] ([NMeL]I[Sar][Sar][NMePhe(4-Me)][Sar][hPhe(3-Cl-4-CF3)]P[Ac5c][NMeI][NMeD]-NMe2; lactam N-11)", "IC50": "≤ 20"},
      {"smiles": "CC[C@H](C)[C@@H]1NC(=O)[C@H](CC(C)C)N(C)C(=O)C[C@@H](C(=O)N2CCCCC2)N(C)C(=O)[C@H](CC(C)C)N(C)C(=O)C(C)(C)NC(=O)[C@H](COCC(=O)NC(C)(C)C)N(C)C(=O)[C@H](CCc2ccc(C(F)(F)F)cc2)NC(=O)CN(C)C(=O)[C@H](COCCC(C)C)N(C)C(=O)CN(C)C(=O)CN(C)C1=O", "note": "[Compound 1502] ([NMeL]I[Sar][Sar][NMeS](Isopentyl)[Sar][hPhe(4-CF3)][NMeS](CH2CONHtBu)[Aib][NMeL][NMeD]-Piperidide; lactam N-11)", "IC50": "> 500"},
      {"smiles": "CC[C@H](C)[C@@H]1NC(=O)[C@H](C)N(C)C(=O)C[C@@H](C)NC(=O)[C@H](C2CCCC2)N(C)C(=O)C2(CCCC2)NC(=O)[C@@H]2CCCN2C(=O)[C@H](CCc2ccc(C(F)(F)F)c(Cl)c2)NC(=O)CN(C)C(=O)[C@H](Cc2ccccc2F)N(C)C(=O)[C@@H]2CCCN2C(=O)CN(C)C1=O", "note": "[Compound 1077] (cyclo([Ac5c][NMeGly(cPent)][d(β3hA)][NMeA]I[Sar]P[NMePhe(2-F)][Sar][hPhe(3-Cl-4-CF3)]P))", "IC50": "> 500"},
      {"smiles": "CCCC[C@@H]1NC(=O)[C@H](Cc2cccc(I)c2)NC(=O)CN(C)C(=O)[C@H](Cc2ccc(Cl)cc2)N(C)C(=O)CN(C)C(=O)CN(C)C(=O)[C@H]([C@@H](C)CC)NC(=O)[C@H](CC(C)C)N(C)C(=O)C[C@@H](C(=O)N2CCCCC2)N(C)C(=O)[C@H](CC(C)C)NC(=O)[C@H](Cc2ccccc2OC(F)(F)F)N(C)C1=O", "note": "[Compound 111] ([NMeL]I[Sar][Sar][NMePhe(4-Cl)][Sar][Phe(3-I)][Nle][X52]L[NMeD]-Piperidide; lactam N-11)", "IC50": "> 500"},
      {"smiles": "CC[C@H](C)[C@@H]1NC(=O)[C@H](CC(C)C)N(C)C(=O)C[C@@H](C(=O)N2CCCC2)N(C)C(=O)[C@H](C2CCCC2)N(C)C(=O)C2(CCCC2)NC(=O)[C@@H]2CCCN2C(=O)[C@H](CCc2ccc(C(F)(F)F)c(Cl)c2)NC(=O)CN(C)C(=O)[C@H](CC2CCCCC2)N(C)C(=O)CN(C)C(=O)CN(C)C1=O", "note": "[Compound 1818] ([NMeL]I[Sar][Sar][NMeCha][Sar][hPhe(3-Cl-4-CF3)]P[Ac5c][NMeGly(cPent)][NMeD]-Pyrrolidide; lactam N-11)", "IC50": "≤ 20"},
      {"smiles": "C#CC[C@H]1C(=O)N(C)CC(=O)N[C@@H](CCc2ccc(C(F)(F)F)c(Cl)c2)C(=O)N2CCC[C@H]2C(=O)NC2(CCCC2)C(=O)N(C)[C@@H](C2CCCCC2)C(=O)N(C)[C@H](C(=O)N2CCCCC2)CC(=O)N(C)[C@@H](CC(C)C)C(=O)N[C@@H]([C@@H](C)CC)C(=O)N(C)CC(=O)N(C)CC(=O)N1C", "note": "[Compound 554] ([NMeL]I[Sar][Sar][NMePra][Sar][hPhe(3-Cl-4-CF3)]P[Ac5c][NMeChg][NMeD]-Piperidide; lactam N-11)", "IC50": "> 500"},
      {"smiles": "CCC[C@H]1C(=O)N(C)CC(=O)N[C@@H](CCc2ccc(C(F)(F)F)c(Cl)c2)C(=O)N2CCC[C@H]2C(=O)NC2(CCCC2)C(=O)N(C)[C@@H](C(C)C)C(=O)N(C)[C@H](C(=O)N2CCCCC2)CC(=O)N(C)[C@@H](CC(C)C)C(=O)N[C@@H]([C@@H](C)CC)C(=O)N(C)[C@@H](C)C(=O)N2CC[C@H]2C(=O)N1C", "note": "[Compound 1027] ([NMeL]I[NMeA][Aze][NMeNva][Sar][hPhe(3-Cl-4-CF3)]P[Ac5c][NMeV][NMeD]-Piperidide; lactam N-11)", "IC50": "> 500"},
      {"smiles": "CC[C@H](C)[C@@H]1NC(=O)[C@H](CC(C)C)N(C)C(=O)C[C@@H](C)NC(=O)[C@H](C2CCCCC2)N(C)C(=O)C2(CCCC2)NC(=O)[C@@H]2CCCN2C(=O)[C@H](CCc2ccc(C(F)(F)F)c(Cl)c2)NC(=O)CN(C)C(=O)[C@H](Cc2ccc(C)cc2)N(C)C(=O)CN(C)C(=O)CN(C)C1=O", "note": "[Compound 1856] (cyclo([Ac5c][NMeChg][d(β3hA)][NMeL]I[Sar][Sar][NMePhe(4-Me)][Sar][hPhe(3-Cl-4-CF3)]P))", "IC50": "> 500"},
      {"smiles": "CC[C@H](C)[C@@H]1NC(=O)[C@H](CC(C)C)N(C)C(=O)C[C@@H](C)NC(=O)[C@H](C(C)C)N(C)C(=O)C2(CCCC2)NC(=O)[C@@H]2CCCN2C(=O)[C@H](CCc2ccc(C(F)(F)F)c(Cl)c2)NC(=O)CN(C)C(=O)[C@H](CCc2ccccc2)N(C)C(=O)CN(C)C(=O)CN(C)C1=O", "note": "[Compound 1627] (cyclo([Ac5c][NMeV][d(β3hA)][NMeL]I[Sar][Sar][NMehPhe][Sar][hPhe(3-Cl-4-CF3)]P))", "IC50": "> 500"},
      {"smiles": "CC[C@H](C)[C@@H]1NC(=O)[C@H](CC(C)C)N(C)C(=O)C[C@@H](C(=O)N2CCOCC2)NC(=O)[C@H]([C@@H](C)CC)N(C)C(=O)C2(CCCC2)NC(=O)[C@@H]2CCCN2C(=O)[C@H](CCc2ccc(C(F)(F)F)c(Cl)c2)NC(=O)CN(C)C(=O)[C@H](CC2CCCCC2)N(C)C(=O)CN(C)C(=O)CN(C)C1=O", "note": "[Compound 1277] ([NMeL]I[Sar][Sar][NMeCha][Sar][hPhe(3-Cl-4-CF3)]P[Ac5c][NMeI]D-Morpholide; lactam N-11)", "IC50": "> 500"}
    ]}
  ]
}
